In patent publication US10935560B2, “Method and kit for identifying lupus anticoagulant (LA) associated with antiphospholipid syndrome” (Instrumentation Laboratory Company, priority 2016, dated 2021):

Experiments:
[1] = test system: LA positive plasma sample; assay: dRVVT Screen / dRVVT Confirm test, 1:1 mixing study; format: biochemical, human; settings: LA positive sample
From the text: (§1) The results of the LA screening assays are expressed by Screen Ratio (Rs), an assay done in the presence of low levels of phospholipid, Confirm Ratio (Re), an assay done in the presence of elevated levels of phospholipid, Screen-to-Confirm Ratio (R) and Normalized Screen-to-Confirm Ratio (NR) defined as follows: […]
(§2) For each of the assays above, irrespective of the clotting inhibitor used in the assay, the measured screen assay clotting time of a patient sample is compared to the measured screen assay clotting time of normal platelet poor plasma and expressed as a ratio (Rs). Additionally, the measured confirm assay clotting time of a patient sample is compared to the measured confirm assay clotting time of normal platelet poor plasma and expressed as a ratio (Rc). A normalized ratio (NR) is expressed as Rs/Rc. The NR is compared to a cutoff ratio established from normal, healthy subjects.

[2] = test system: normal pooled plasma (NPP); assay: as above; format: biochemical, human; settings: 500 ng/ml argatroban (1.06 in the absence of argatroban)
From the text: as §1, §2

Question: Which “Normalized ratio of dRVVT Assay” value ([1]; 500 ng/ml argatroban (from 1.34)) does the source give for CC1CNc2c(cccc2S(=O)(=O)N[C@@H](CCCNC(=N)N)C(=O)N2CC[C@@H](C)C[C@@H]2C(=O)O)C1 (stereo partly drawn) [argatroban] here?
Answer: 1.57

Question: And the “Change of Screen-to-Confirm Ratio of dRVVT Assay” value ([1]; argatroban)?
Answer: didn't change

Question: What about the “Screen-to-Confirm Ratio of dRVVT Assay” value [2] of the same compound?
Answer: 0.9
